# Literature values, collected in patent publication US7833524B2 (priority 2005, dated 2010).
# Target: LC/A (Clostridium botulinum, UniProt P0DPI0)
# Sequence (P0DPI0 2-448 limits assumed): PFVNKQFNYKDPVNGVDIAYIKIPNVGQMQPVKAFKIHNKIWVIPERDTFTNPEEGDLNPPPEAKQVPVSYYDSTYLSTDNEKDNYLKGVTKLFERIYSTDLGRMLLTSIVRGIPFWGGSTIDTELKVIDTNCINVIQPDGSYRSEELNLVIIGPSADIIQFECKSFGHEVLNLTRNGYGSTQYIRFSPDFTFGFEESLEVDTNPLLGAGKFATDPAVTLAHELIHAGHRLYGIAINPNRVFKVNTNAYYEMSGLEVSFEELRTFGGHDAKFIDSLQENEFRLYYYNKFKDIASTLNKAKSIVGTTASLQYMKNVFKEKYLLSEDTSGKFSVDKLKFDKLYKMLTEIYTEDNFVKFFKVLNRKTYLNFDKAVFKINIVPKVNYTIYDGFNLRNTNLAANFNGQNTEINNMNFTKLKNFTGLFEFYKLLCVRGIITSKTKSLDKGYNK
row,SMILES,Concentration range that inhibits LC/A
1,C[C@H](CS)C(=O)N1CCC[C@H]1C(=O)O [captopril],mM concentrations
2,CCOC(=O)[C@H](CCc1ccccc1)N[C@@H](C)C(=O)N1CCC[C@H]1C(=O)O [enalapril],mM concentrations
